Measurements: PMC6968633, “Synthesis, antibacterial and anticancer activity, and docking study of aminoguanidines containing an alkynyl moiety” (Journal of Enzyme Inhibition and Medicinal Chemistry, 2019)
Converted amounts (≈) assume the structure as drawn.

Columns and labels:
[1] = test system: Escherichia coli CMCC 44568; experiment: Bacterial resistance development, serial passaging at sub-MIC; assay type: cell-based; conditions: E. coli, passaging at MIC/2
Description: (§1) To evaluate the propensity for developing bacterial resistance, one of the compounds with high antibacterial activity (3g) was used. The initial MIC values of 3g were determined against bacteria Staphylococcus aureus CMCC 25923 and Escherichia coli CMCC 44568, using norfloxacin and colistin, respectively, as antibiotic controls. Subsequently, serial passaging was initiated by transferring bacterial suspension grown at the sub-MIC of the compound/antibiotics (MIC/2) to a new plate and subjecting it to another assay to determine the (new) MIC. After 22 h incubation, cells grown at the sub-MIC of the test compound/antibiotics were once again transferred and the MIC determined. The process was repeated for 20 or 30 passages for S. aureus and E. coli, respectively. The MIC for 3g, norfloxacin and colistin was plotted as a function of time in days (number of passages) to determine the propensity of bacterial resistance development.
(§2) Bacterial resistance against most antibiotics presents a major problem of current times. Therefore, it is crucial to evaluate the potential emergence of bacterial resistance against these biocides. […] Norfloxacin, an antibiotic generally used to treat the Gram-positive infections, was used as a positive control for S. aureus, whereas colistin, a lipopeptide antibiotic active against Gram-negative bacteria, was used as a positive control for E. coli. These antibacterial agents were repeatedly challenged against bacteria at their sub-MIC values to allow bacteria to develop resistance. Resistance is usually defined as a > 4-fold increase in the original MIC[32].

[2] = test system: Staphylococcus aureus CMCC 25923; experiment: as above; assay type: cell-based; conditions: S. aureus, passaging at MIC/2, 20 passages
Description: as §1, §2

[3] = test system: Methicillin-resistant S. aureus ATCC 33591; experiment: Bactericidal time-kill assay; assay type: cell-based, Staphylococcus aureus; conditions: MRSA; for nature of antibacterial effect in time-kill assay: 1 × MIC and 2 × MIC
Description: Methicillin-resistant S. aureus ATCC 33591 grown in MHB was used to determine time-kill kinetics. Bacterial suspensions (10^5 CFU/mL) containing test compounds (norflocaxin, compound 3g) at final concentrations of 1 × MIC and 2 × MIC were incubated at 37 °C with shaking. Aliquots (10 μL) were removed from the cultures after 0, 0.5, 1, 2, 3, 4, 6, 8 and 12 h, serially diluted 1000-fold in nutrient solution, and plated onto sterile Mueller-Hinton agar medium. Plates were then incubated for 24 h at 37 °C, the number of CFU was counted, and the total bacterial log10 CFU/mL was determined.

[4] = test system: Staphyiococcus aureus CMCC 25923; experiment: Antibacterial MIC, serial dilution; assay type: cell-based, Staphylococcus aureus; conditions: Staphylococcus aureus, CMCC25923; S. aureus CMCC 25923, 24 h, 37 °C; read-out: MIC
Description: (§3) Test bacteria were grown to mid-log phase in Mueller–Hinton broth (MHB) or Tryptone Soya Broth (TSB) and diluted 1000-fold in the same medium. Bacteria (10^5 CFU/mL) were inoculated into MHB or TSB and dispensed at 0.2 ml/well into a 96-well microtiter plate. As positive controls, gatifloxacin, moxifloxacin, norfloxacin, oxacillin, and penicillin were used. […] Bacterial growth was determined by measuring the absorption at 630 nm using a microplate reader. All experiments were carried out three times.
(§4) The evaluation of antibacterial activity of all compounds (3a–3j and 6a–6k) was performed by a serial dilution method to determine the MIC against a panel of pathogens comprising five Gram-positive strains (S. aureus (CMCC(B) 26003 and CMCC 25923), Streptococcus mutans BNCC 336931, Enterococcus faecalis CMCC 29212, and Bacillus subtilis CMCC 63501), four Gram-negative strains (E. coli (CMCC 25922 and CMCC 44568) and P. aeruginosa (CMCC 27853 and CMCC 10104)), as well as three methicillin-resistant clinical isolates (S. aureus ATCC 43300 and ATCC 33591, P. aeruginosa ATCC BAA-2111). The results are described in Tables 1 and 2. Gatifloxacin, moxifloxacin, norfloxacin, oxacillin, and penicillin were used as positive controls.

A549 = experiment: Cytotoxicity, CCK-8 assay; assay type: cell-based; conditions: Homo sapiens, A549 lung cancer cells, 48 h
Description: (§5) A lung cancer cell line (A549), gastric cancer cell line (SGC7901) and human hepatocytes (L02) were used to test the anticancer activity and cytotoxicity of the new compounds. 5-Fluorouracil (5-FU) was used as the positive control against cancer cell lines. The A549, SGC7901 and L02 cells were grown in Dulbecco’s modified Eagle’s medium (DMEM) supplemented with 10% foetal bovine serum (FBS) and antibiotics (100 U/mL penicillin-streptomycin). Cells at 80–90% confluence were split by trypsin (0.25% in PBS; pH 7.4), and the medium was changed at 24 h intervals. The cells were cultured at 37 °C in a 5% CO2 incubator. The cells were passaged three times, then approximately 1 × 10^4 cells were seeded into each well of a 96-well plate and allowed to incubate to allow attachment of the cells to the surface. After 24 h, the medium was replaced with DMEM supplemented with 10% FBS containing various concentrations (0.1, 0.3, 1, 3, 10, and 30 μg/mL) of test compounds. Each concentration was tested in triplicate. After 48 h treatment, 20 µL of CCK-8 solution was added to each well and the optical density measured at 450 nm after 3 h using a microplate reader. The IC50 values were defined as the concentrations inhibiting 50% of cell growth.

SGC7901 = experiment: Cytotoxicity, CCK-8 assay; assay type: cell-based; conditions: Homo sapiens, SGC-7901, SGC7901 gastric cancer cells, 48 h
Description: as §5

[5] = test system: Pseudomonas aeruginosa ATCC BAA-2111; experiment: Antibacterial MIC, multidrug-resistant clinical isolate; assay type: cell-based; conditions: ATCCBAA2111, multidrug-resistant P. aeruginosa ATCC BAA-2111
Description: as §3, §4

[6] = test system: Staphylococcus aureus ATCC 43300; experiment: as above; assay type: cell-based; conditions: Staphylococcus aureus, ATCC43300; multidrug-resistant S. aureus ATCC 43300; read-out: MIC
Description: as §3, §4

[7] = test system: Staphylococcus aureus ATCC 33591; experiment: as above; assay type: cell-based; conditions: Staphylococcus aureus, ATCC33591; multidrug-resistant S. aureus ATCC 33591; read-out: MIC
Description: as §3, §4

L02 = experiment: Cytotoxicity, CCK-8 assay, normal cell line; assay type: cell-based; conditions: L02 normal human hepatocytes, 48 h
Description: as §5

[8] = test system: Staphylococcus aureus CMCC(B)26003; experiment: Antibacterial MIC, serial dilution; assay type: cell-based; conditions: Staphylococcus aureus; S. aureus CMCC(B)26003, 24 h, 37 °C; read-out: MIC
Description: as §3, §4

[9] = test system: Escherichia coli CMCC 25922; experiment: Antibacterial MIC, serial dilution; assay type: cell-based; conditions: Escherichia coli, CMCC25922; E. coli CMCC 25922, 24 h, 37 °C; read-out: MIC
Description: as §3, §4

[10] = test system: Streptococcus mutans BNCC 336931; experiment: Antibacterial MIC, serial dilution; assay type: cell-based; conditions: Streptococcus mutans, BNCC336931; S. mutans BNCC 336931, 24 h, 37 °C; read-out: MIC
Description: as §3, §4

[11] = test system: Enterococcus faecalis CMCC 29212; experiment: Antibacterial MIC, serial dilution; assay type: cell-based; conditions: Enterococcus faecalis, CMCC29212; E. faecalis CMCC 29212, 24 h, 37 °C; read-out: MIC
Description: as §3, §4

[12] = test system: Escherichia coli CMCC 44568; experiment: Antibacterial MIC, serial dilution; assay type: cell-based; conditions: Escherichia coli, CMCC44568; E. coli CMCC 44568, 24 h, 37 °C; read-out: MIC
Description: as §3, §4

[13] = test system: Pseudomonas aeruginosa CMCC 10104; experiment: Antibacterial MIC, serial dilution; assay type: cell-based; conditions: Pseudomonas aeruginosa, CMCC10104; P. aeruginosa CMCC 10104, 24 h, 37 °C; read-out: MIC
Description: as §3, §4

[14] = test system: Pseudomonas aeruginosa CMCC 27853; experiment: Antibacterial MIC, serial dilution; assay type: cell-based; conditions: Pseudomonas aeruginosa, CMCC27853; P. aeruginosa CMCC 27853, 24 h, 37 °C; read-out: MIC
Description: as §3, §4

[15] = test system: Bacillus subtilis CMCC 63501; experiment: Antibacterial MIC, serial dilution; assay type: cell-based; conditions: Bacillus subtilis, CMCC63501; B. subtilis CMCC 63501, 24 h, 37 °C; read-out: MIC
Description: as §3, §4

Compound | increase in MIC on serial passaging [2] | nature of antibacterial effect in time-kill assay [3] | MIC [4] | MIC [5] | MIC [6] | MIC [7] | MIC [8] | MIC [9] | MIC [10] | MIC [11] | MIC [12] | MIC [13] | MIC [14] | MIC [15] | further results
N=C(N)NN=Cc1ccc(C#Cc2ccc(Cl)cc2)cc1 [Compound 3g, 2-(4-((4-Chlorophenyl)ethynyl)benzylidene)hydrazine-1-carboximidamide] | little change | rapidly bactericidal | 0.5 µg/mL (≈ 1.68 µM) | 4 µg/mL (≈ 13.5 µM) | 1 µg/mL (≈ 3.37 µM) | 0.5 µg/mL (≈ 1.68 µM) | 0.5 µg/mL (≈ 1.68 µM) | 2 µg/mL (≈ 6.74 µM) | 0.5 µg/mL (≈ 1.68 µM) | 0.5 µg/mL (≈ 1.68 µM) | 2 µg/mL (≈ 6.74 µM) | 1 µg/mL (≈ 3.37 µM) | > 128 µg/mL | 0.25 µg/mL (≈ 0.842 µM) | increase in MIC on serial passaging [1]: little change; persistence of bactericidal activity ([3]; 2 × MIC): 12 h; reduction of bacterial count ([3]; 2 × MIC, after 2 h, start 5.5 log10 CFU/mL): > 5 log10 CFU/mL; IC50 (A549): 4.42 µg/mL (≈ 14.9 µM); IC50 (SGC7901): 1.01 µg/mL (≈ 3.4 µM); IC50 (L02): 20.9 µg/mL (≈ 70.3 µM); melting point: 232 to 234 °C
CCn1cc(C(=O)O)c(=O)c2cc(F)c(N3CCNCC3)cc21 [Norfloxacin, reference compound] | approximately 32 fold | bacteriostatic, not bactericidal | 0.125 µg/mL (≈ 0.391 µM) | 1 µg/mL (≈ 3.13 µM) | 0.5 µg/mL (≈ 1.57 µM) | 0.25 µg/mL (≈ 0.783 µM) | 0.125 µg/mL (≈ 0.391 µM) | 0.125 µg/mL (≈ 0.391 µM) | 16 µg/mL (≈ 50.1 µM) | 1 µg/mL (≈ 3.13 µM) | 0.125 µg/mL (≈ 0.391 µM) | 4 µg/mL (≈ 12.5 µM) | 2 µg/mL (≈ 6.26 µM) | 2 µg/mL (≈ 6.26 µM) | 
